Values after ≈ are worked out from the molar mass of the structure shown. Read-outs that look alike come from different tables or passages of the source.
System: Candida auris strains
Test: Candida auris antifungal susceptibility testing (CLSI M27-A3), 38 strains
Type: cell-based
Conditions: for MIC: Candidozyma auris, read-out: MIC

Question: With `CC[C@H](C)C[C@H](C)CCCCCCCCC(=O)N[C@H]1C[C@@H](O)[C@@H](NCCN)NC(=O)[C@@H]2[C@@H](O)CCN2C(=O)[C@H]([C@H](O)CCN)NC(=O)[C@H]([C@H](O)[C@@H](O)c2ccc(O)cc2)NC(=O)[C@@H]2C[C@@H](O)CN2C(=O)[C@H]([C@@H](C)O)NC1=O` [CAS, caspofungin] as the compound, how does the MIC (24 h, strain 1 VPCI 669/P/12, 24 h) read?
Answer: 0.25 µg/mL (≈ 0.229 µM)

Question: What about the MIC (24 h, strain 2 VCPI 671/P/12, 24 h) of the same compound?
Answer: 0.25 µg/mL (≈ 0.229 µM)

Question: And the MIC (24 h, strain 3 VCPI 674/P/12, 24 h)?
Answer: 0.25 µg/mL (≈ 0.229 µM)

Question: And the MIC (24 h, strain 4 VCPI 683/P/12, 24 h)?
Answer: 0.25 µg/mL (≈ 0.229 µM)

Question: What about the MIC (24 h, strain 5 VCPI 692/P/12, 24 h) of the same compound?
Answer: 0.25 µg/mL (≈ 0.229 µM)

Question: And the MIC (24 h, strain 6 VCPI 712/P/12, 24 h)?
Answer: 0.25 µg/mL (≈ 0.229 µM)

Question: What about the MIC (24 h, strain 7 VCPI 471/P/13, 24 h) of the same compound?
Answer: 1 µg/mL (≈ 0.915 µM)

Question: And the MIC (24 h, strain 8 VCPI 475/P/13, 24 h)?
Answer: 0.25 µg/mL (≈ 0.229 µM)

Question: What about the MIC (24 h, strain 9 VCPI 478/P/13, 24 h) of the same compound?
Answer: 0.25 µg/mL (≈ 0.229 µM)

Question: What about the MIC (24 h, strain 10 VCPI 479/P/13, 24 h) of the same compound?
Answer: 0.5 µg/mL (≈ 0.457 µM)

Question: What about the MIC (24 h, strain 11 VCPI 480/P/13, 24 h) of the same compound?
Answer: 0.5 µg/mL (≈ 0.457 µM)

Question: And the MIC (24 h, strain 12 VCPI 482/P/13, 24 h)?
Answer: 0.5 µg/mL (≈ 0.457 µM)

Question: What about the MIC (24 h, strain 13 VCPI 483/P/13, 24 h) of the same compound?
Answer: 0.25 µg/mL (≈ 0.229 µM)

Question: What about the MIC (24 h, strain 14 VCPI 1130/P/13, 24 h) of the same compound?
Answer: 0.5 µg/mL (≈ 0.457 µM)

Question: What about the MIC (24 h, strain 15 VCPI 1132/P/13, 24 h) of the same compound?
Answer: 0.5 µg/mL (≈ 0.457 µM)

Question: What about the MIC (24 h, strain 16 VCPI 1133/P/13, 24 h) of the same compound?
Answer: 16 µg/mL (≈ 14.6 µM)

Question: What about the MIC (24 h, strain 17 VCPI 105/P/14, 24 h) of the same compound?
Answer: 0.5 µg/mL (≈ 0.457 µM)

Question: And the MIC (24 h, strain 18 VCPI 107/P/14, 24 h)?
Answer: 0.25 µg/mL (≈ 0.229 µM)

Question: And the MIC (24 h, strain 19 VCPI 510/P/14, 24 h)?
Answer: 0.5 µg/mL (≈ 0.457 µM)

Question: What about the MIC (24 h, strain 20 VCPI 511/P/14, 24 h) of the same compound?
Answer: 0.5 µg/mL (≈ 0.457 µM)

Question: And the MIC (24 h, strain 21 VCPI 512/P/14, 24 h)?
Answer: 0.5 µg/mL (≈ 0.457 µM)

Question: And the MIC (24 h, strain 22 VCPI 513/P/14, 24 h)?
Answer: 1 µg/mL (≈ 0.915 µM)

Question: And the MIC (24 h, strain 23 VCPI 514/P/14, 24 h)?
Answer: 0.5 µg/mL (≈ 0.457 µM)

Question: What about the MIC (24 h, strain 24 VCPI 250/P/14, 24 h) of the same compound?
Answer: 0.5 µg/mL (≈ 0.457 µM)

Question: And the MIC (24 h, strain 25 VCPI 265/P/14, 24 h)?
Answer: 8 µg/mL (≈ 7.32 µM)

Question: What about the MIC (24 h, strain 26 VCPI 266/P/14, 24 h) of the same compound?
Answer: 0.125 µg/mL (≈ 0.114 µM)

Question: And the MIC (24 h, strain 27 VCPI 462/P/14, 24 h)?
Answer: 8 µg/mL (≈ 7.32 µM)

Question: What about the MIC (24 h, strain 28 VCPI 463/P/14, 24 h) of the same compound?
Answer: 0.5 µg/mL (≈ 0.457 µM)

Question: And the MIC (24 h, strain 29 VCPI 467/P/14, 24 h)?
Answer: 0.125 µg/mL (≈ 0.114 µM)

Question: What about the MIC (24 h, strain 30 VCPI 471a/P/14, 24 h) of the same compound?
Answer: 4 µg/mL (≈ 3.66 µM)

Question: What about the MIC (24 h, strain 31 VCPI 478/P/14, 24 h) of the same compound?
Answer: 1 µg/mL (≈ 0.915 µM)

Question: What about the MIC (24 h, strain 32 VCPI 518/P/14, 24 h) of the same compound?
Answer: 0.5 µg/mL (≈ 0.457 µM)

Question: What about the MIC (24 h, strain 33 VCPI 550/P/14, 24 h) of the same compound?
Answer: 0.125 µg/mL (≈ 0.114 µM)

Question: What about the MIC (24 h, strain 34 VCPI 714/P/14, 24 h) of the same compound?
Answer: 0.5 µg/mL (≈ 0.457 µM)

Question: And the MIC (24 h, strain 35 VCPI 717/P/14, 24 h)?
Answer: 0.5 µg/mL (≈ 0.457 µM)

Question: What about the MIC (24 h, strain 36 VCPI 1060/P/14, 24 h) of the same compound?
Answer: 0.5 µg/mL (≈ 0.457 µM)

Question: What about the MIC (24 h, strain 37 VCPI 74/P/15, 24 h) of the same compound?
Answer: 0.5 µg/mL (≈ 0.457 µM)

Question: And the MIC (24 h, strain 38 VCPI 213/P/15, 24 h)?
Answer: 0.5 µg/mL (≈ 0.457 µM)

Question: And the MIC (48 h, strain 1 VPCI 669/P/12, 48 h)?
Answer: > 16 µg/mL

Question: What about the MIC (48 h, strain 2 VCPI 671/P/12, 48 h) of the same compound?
Answer: > 16 µg/mL

Question: What about the MIC (48 h, strain 3 VCPI 674/P/12, 48 h) of the same compound?
Answer: 0.25 µg/mL (≈ 0.229 µM)

Question: What about the MIC (48 h, strain 4 VCPI 683/P/12, 48 h) of the same compound?
Answer: > 16 µg/mL

Question: And the MIC (48 h, strain 5 VCPI 692/P/12, 48 h)?
Answer: > 16 µg/mL

Question: And the MIC (48 h, strain 6 VCPI 712/P/12, 48 h)?
Answer: 0.25 µg/mL (≈ 0.229 µM)

Question: What about the MIC (48 h, strain 7 VCPI 471/P/13, 48 h) of the same compound?
Answer: > 16 µg/mL

Question: And the MIC (48 h, strain 8 VCPI 475/P/13, 48 h)?
Answer: 0.25 µg/mL (≈ 0.229 µM)

Question: And the MIC (48 h, strain 9 VCPI 478/P/13, 48 h)?
Answer: > 16 µg/mL

Question: And the MIC (48 h, strain 10 VCPI 479/P/13, 48 h)?
Answer: > 16 µg/mL

Question: What about the MIC (48 h, strain 11 VCPI 480/P/13, 48 h) of the same compound?
Answer: > 16 µg/mL

Question: What about the MIC (48 h, strain 12 VCPI 482/P/13, 48 h) of the same compound?
Answer: > 16 µg/mL

Question: And the MIC (48 h, strain 13 VCPI 483/P/13, 48 h)?
Answer: 0.25 µg/mL (≈ 0.229 µM)

Question: And the MIC (48 h, strain 14 VCPI 1130/P/13, 48 h)?
Answer: 0.5 µg/mL (≈ 0.457 µM)

Question: And the MIC (48 h, strain 15 VCPI 1132/P/13, 48 h)?
Answer: 0.5 µg/mL (≈ 0.457 µM)

Question: And the MIC (48 h, strain 16 VCPI 1133/P/13, 48 h)?
Answer: > 16 µg/mL

Question: And the MIC (48 h, strain 17 VCPI 105/P/14, 48 h)?
Answer: 1 µg/mL (≈ 0.915 µM)

Question: What about the MIC (48 h, strain 18 VCPI 107/P/14, 48 h) of the same compound?
Answer: 0.5 µg/mL (≈ 0.457 µM)

Question: And the MIC (48 h, strain 19 VCPI 510/P/14, 48 h)?
Answer: > 16 µg/mL

Question: What about the MIC (48 h, strain 20 VCPI 511/P/14, 48 h) of the same compound?
Answer: > 16 µg/mL

Question: What about the MIC (48 h, strain 21 VCPI 512/P/14, 48 h) of the same compound?
Answer: 1 µg/mL (≈ 0.915 µM)

Question: And the MIC (48 h, strain 22 VCPI 513/P/14, 48 h)?
Answer: > 16 µg/mL

Question: And the MIC (48 h, strain 23 VCPI 514/P/14, 48 h)?
Answer: 1 µg/mL (≈ 0.915 µM)

Question: What about the MIC (48 h, strain 24 VCPI 250/P/14, 48 h) of the same compound?
Answer: 0.5 µg/mL (≈ 0.457 µM)

Question: And the MIC (48 h, strain 25 VCPI 265/P/14, 48 h)?
Answer: > 16 µg/mL

Question: And the MIC (48 h, strain 26 VCPI 266/P/14, 48 h)?
Answer: 0.125 µg/mL (≈ 0.114 µM)

Question: What about the MIC (48 h, strain 27 VCPI 462/P/14, 48 h) of the same compound?
Answer: > 16 µg/mL

Question: And the MIC (48 h, strain 28 VCPI 463/P/14, 48 h)?
Answer: 0.5 µg/mL (≈ 0.457 µM)

Question: And the MIC (48 h, strain 29 VCPI 467/P/14, 48 h)?
Answer: 0.5 µg/mL (≈ 0.457 µM)

Question: What about the MIC (48 h, strain 30 VCPI 471a/P/14, 48 h) of the same compound?
Answer: > 16 µg/mL

Question: And the MIC (48 h, strain 31 VCPI 478/P/14, 48 h)?
Answer: 2 µg/mL (≈ 1.83 µM)

Question: And the MIC (48 h, strain 32 VCPI 518/P/14, 48 h)?
Answer: 16 µg/mL (≈ 14.6 µM)

Question: And the MIC (48 h, strain 33 VCPI 550/P/14, 48 h)?
Answer: 0.25 µg/mL (≈ 0.229 µM)

Question: What about the MIC (48 h, strain 34 VCPI 714/P/14, 48 h) of the same compound?
Answer: > 16 µg/mL

Question: What about the MIC (48 h, strain 35 VCPI 717/P/14, 48 h) of the same compound?
Answer: > 16 µg/mL

Question: And the MIC (48 h, strain 36 VCPI 1060/P/14, 48 h)?
Answer: > 16 µg/mL

Question: What about the MIC (48 h, strain 37 VCPI 74/P/15, 48 h) of the same compound?
Answer: > 16 µg/mL

Question: What about the MIC (48 h, strain 38 VCPI 213/P/15, 48 h) of the same compound?
Answer: > 16 µg/mL

Question: What about the “number of resistant isolates” value (of 38 C. auris isolates) of the same compound?
Answer: 4

Source: patent US20190307843A1, “SINGLE DOSE METHODS FOR PREVENTING AND TREATING FUNGAL INFECTIONS” (Cidara Therapeutics, Inc., priority 2016, published 2019)
